Laboratory results taken from ChEMBL document CHEMBL1201862, “PubChem BioAssay data set” (2004).
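These data come from cells grown in 96-well plates and exposed to compound for 48 hours at five concentrations. GI50 is the concentration that inhibits growth by half.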 Calls of active or inactive are those of the source. Rule as the data show it: active = GI50 up to about 1.1 µM and inactive = higher.

Legend:
Assay in all cases: DTP human tumour cell line panel, 48 h
BT-549 = system: BT-549
DMS-114 = system: DMS-114
KM-20L2 = system: KM-20L2
LXFL 529 = system: LXFL 529
M19-MEL = system: M19-MEL
HOP-18 = system: HOP-18
SNB-78 = system: SNB-78
XF498 = system: XF498
RXF 631 = system: RXF 631

Question: With ON=C1CCCCC(=NO)CCCC1 as the compound, how does the GI50 (BT-549) read?
Answer: > 100 µM (inactive)

Question: With Cn1/c(=N\N=C(\CNCCO)[C@@H](O)[C@@H]2OC(c3ccccc3)OC[C@H]2O)sc2ccccc21 (stereo partly specified) as the compound, how does the GI50 (BT-549) read?
Answer: 21.1 µM (inactive)

Question: For CC(C)OC(=O)c1ccc(CCc2cc(O)c(Br)cc2O)cc1, which GI50 (BT-549) is on record?
Answer: 16.4 µM (inactive)

Question: For Cn1c(=O)c2nc(CCCCc3nc4ccccc4[nH]3)[nH]c2n(C)c1=O, which GI50 (BT-549) is on record?
Answer: > 100 µM (inactive)

Question: CN(C)CCn1c(=O)c2ccc(NCCCN(C)CCCNc3ccc4c(=O)n(CCN(C)C)c(=O)n5c6ccc(O)cc6c(=O)c3c45)c3c(=O)c4cc(O)ccc4n(c1=O)c23 was tested. Which GI50 (BT-549) did it give?
Answer: 0.0692 µM (active)

Question: Which results are given for Cc1cc(C)c(C(=O)O)c(N)c1O?
Answer: GI50 (DMS-114): > 100 µM (inactive); GI50 (KM-20L2): > 100 µM (inactive); GI50 (LXFL 529): > 100 µM (inactive); GI50 (M19-MEL): > 100 µM (inactive)

Question: With CN(C)C1(N(C)C)Oc2c(c(=O)n(C)c(=O)n2C)C(c2ccccc2Br)C1(F)F (stereo unspecified) as the compound, how does the GI50 (BT-549) read?
Answer: > 100 µM (inactive)

Question: With CC(=O)N1N=C(c2ccc3ccccc3c2O)CC1c1ccc(N(C)C)cc1 (stereo unspecified) as the compound, how does the GI50 (BT-549) read?
Answer: > 100 µM (inactive)

Question: How did the GI50 (BT-549) turn out when N#CC(C#N)=CNCCN1CCN(C=C(C#N)C#N)CC1 was run?
Answer: > 100 µM (inactive)

Question: For CC#CC#C/C=C1/C=CC2(CCCCO2)O1 (stereo unspecified), which GI50 (BT-549) is on record?
Answer: > 100 µM (inactive)

Question: How did the GI50 (HOP-18) turn out when COc1ccc(NC(=O)CC(=O)NN2C(=O)/C(=C/c3ccc(N(CCC#N)CCC#N)cc3C)N=C2/C=C\c2ccccc2)cc1 was run?
Answer: 18.5 µM (inactive)

Question: What about the GI50 (KM-20L2) of the same compound?
Answer: > 100 µM (inactive)

Question: What about the GI50 (LXFL 529) of the same compound?
Answer: > 100 µM (inactive)

Question: And the GI50 (M19-MEL)?
Answer: > 100 µM (inactive)

Question: What about the GI50 (SNB-78) of the same compound?
Answer: > 100 µM (inactive)

Question: With Cc1cn(C(=O)NC23CC4CC(CC(C4)C2)C3)c(=O)[nH]c1=O as the compound, how does the GI50 (BT-549) read?
Answer: 21.8 µM (inactive)

Question: Which GI50 (BT-549) does the source give for Cc1cc(O)c2c(c1)C(C1c3cccc(O)c3C(=O)c3c(O)cc(C)cc31)c1cccc(O)c1C2=O (stereo unspecified) here?
Answer: 0.292 µM (active)

Question: How did the GI50 (DMS-114) turn out when Cc1cnc2ccc(C)c([N+](=O)[O-])c2c1NCCCN(C)C was run?
Answer: 86.5 µM (inactive)

Question: What about the GI50 (KM-20L2) of the same compound?
Answer: 91.6 µM (inactive)

Question: And the GI50 (M19-MEL)?
Answer: > 100 µM (inactive)

Question: And the GI50 (SNB-78)?
Answer: > 100 µM (inactive)

Question: And the GI50 (XF498)?
Answer: > 100 µM (inactive)

Question: For CCCCCCCCCCCCCC(=O)OC1CC(=O)OC1CO (stereo unspecified), which GI50 (DMS-114) is on record?
Answer: 35.7 µM (inactive)

Question: What about the GI50 (HOP-18) of the same compound?
Answer: 21.6 µM (inactive)

Question: What about the GI50 (KM-20L2) of the same compound?
Answer: 50.7 µM (inactive)

Question: And the GI50 (LXFL 529)?
Answer: 89.3 µM (inactive)

Question: And the GI50 (M19-MEL)?
Answer: > 100 µM (inactive)

Question: And the GI50 (SNB-78)?
Answer: 37.8 µM (inactive)

Question: What about the GI50 (XF498) of the same compound?
Answer: 65.3 µM (inactive)

Question: For COC(=O)c1c(C)cccc1C1CN=NC12Cc1cc(C)c(C)cc1C2=O (stereo unspecified), which GI50 (BT-549) is on record?
Answer: 32.4 µM (inactive)

Question: How did the GI50 (HOP-18) turn out when O=C(O)/C(Cl)=C(\Cl)C(=O)Nc1ccccc1 was run?
Answer: > 100 µM (inactive)

Question: And the GI50 (KM-20L2)?
Answer: > 100 µM (inactive)

Question: And the GI50 (LXFL 529)?
Answer: > 100 µM (inactive)

Question: What about the GI50 (M19-MEL) of the same compound?
Answer: > 100 µM (inactive)

Question: And the GI50 (RXF 631)?
Answer: > 100 µM (inactive)

Question: What about the GI50 (SNB-78) of the same compound?
Answer: > 100 µM (inactive)

Question: How did the GI50 (BT-549) turn out when Cc1cn(CCCCOC(=O)NC(CCCNC(=N)N)C(=O)O)c(=O)[nH]c1=O (stereo unspecified) was run?
Answer: > 100 µM (inactive)

Question: COc1ccc(OC)c(-c2cc(O)c3cc4c(cc3n2)OCO4)c1 was tested. Which GI50 (DMS-114) did it give?
Answer: 3.68 µM (inactive)

Question: What about the GI50 (HOP-18) of the same compound?
Answer: > 96.2 µM (inactive)

Question: What about the GI50 (KM-20L2) of the same compound?
Answer: 4.14 µM (inactive)

Question: What about the GI50 (LXFL 529) of the same compound?
Answer: 6.92 µM (inactive)

Question: And the GI50 (M19-MEL)?
Answer: 4.21 µM (inactive)

Question: What about the GI50 (SNB-78) of the same compound?
Answer: 6.98 µM (inactive)

Question: What about the GI50 (XF498) of the same compound?
Answer: 4.42 µM (inactive)

Question: How did the GI50 (DMS-114) turn out when CS(=O)(=O)OCCn1cnc2nc(NC(=O)c3ccccc3)[nH]c(=O)c21 was run?
Answer: > 100 µM (inactive)

Question: What about the GI50 (HOP-18) of the same compound?
Answer: > 100 µM (inactive)

Question: And the GI50 (KM-20L2)?
Answer: > 100 µM (inactive)

Question: And the GI50 (LXFL 529)?
Answer: > 100 µM (inactive)

Question: What about the GI50 (M19-MEL) of the same compound?
Answer: > 100 µM (inactive)

Question: What about the GI50 (RXF 631) of the same compound?
Answer: > 100 µM (inactive)

Question: And the GI50 (SNB-78)?
Answer: > 100 µM (inactive)

Question: With O=S(=O)(C1=CC(S(=O)(=O)c2ccccc2)COC1)c1ccccc1 (stereo unspecified) as the compound, how does the GI50 (DMS-114) read?
Answer: > 100 µM (inactive)

Question: And the GI50 (LXFL 529)?
Answer: > 100 µM (inactive)

Question: And the GI50 (M19-MEL)?
Answer: > 100 µM (inactive)

Question: And the GI50 (XF498)?
Answer: > 100 µM (inactive)

Question: What does the source list for O=C(CCl)Nc1ccc(C(=O)N/N=C/c2ccc(Cl)cc2)cc1?
Answer: GI50 (BT-549): 1.88 µM (inactive); GI50 (DMS-114): 1.45 µM (inactive); GI50 (KM-20L2): 11.9 µM (inactive); GI50 (LXFL 529): 1.71 µM (inactive); GI50 (M19-MEL): 12.8 µM (inactive); GI50 (SNB-78): 3.52 µM (inactive); GI50 (XF498): 1.19 µM (inactive)

Question: How did the GI50 (BT-549) turn out when CCOC(=O)c1cc(C#N)[nH]c1-c1ccsc1 was run?
Answer: 34.8 µM (inactive)

Question: With O=[N+]([O-])c1ccc(Cl)c(C2CC(c3cccc4ccccc34)=Nc3ccccc3[S+]2[O-])c1 (stereo unspecified) as the compound, how does the GI50 (DMS-114) read?
Answer: 14.9 µM (inactive)

Question: What about the GI50 (HOP-18) of the same compound?
Answer: 24.2 µM (inactive)

Question: What about the GI50 (KM-20L2) of the same compound?
Answer: 20.2 µM (inactive)

Question: And the GI50 (LXFL 529)?
Answer: 13.3 µM (inactive)

Question: What about the GI50 (M19-MEL) of the same compound?
Answer: 20.6 µM (inactive)

Question: What about the GI50 (RXF 631) of the same compound?
Answer: 29.4 µM (inactive)

Question: What about the GI50 (SNB-78) of the same compound?
Answer: 11.4 µM (inactive)

Question: Brc1cccc(/C=C/CN2CCN(CCOC(c3ccccc3)c3ccccc3)CC2)c1 was tested. Which GI50 (BT-549) did it give?
Answer: 16.5 µM (inactive)

Question: For C=CC[C@H](C)CCC(=O)N1[C@H]2CC3CC[C@@]2(CS1(=O)=O)C3(C)C, which GI50 (BT-549) is on record?
Answer: 78.7 µM (inactive)

Question: O=C(O)CSC(NC(=O)C(C(F)(F)F)C(F)(F)F)(C(F)(F)F)C(F)(F)F was tested. Which GI50 (BT-549) did it give?
Answer: > 100 µM (inactive)

Question: With CCC[C@H](C)[C@H]1NC(=O)[C@@H](NC(=O)[C@@H](CC(C)C)N(C)C(=O)C2CCCN2C(=O)[C@H](C)O)[C@@H](C)OC(=O)[C@H](CC(C)C)N(C)C(=O)[C@@H]2CCCN2C(=O)[C@H](CC(C)C)NC(=O)[C@@H](C)C(=O)[C@H](C(C)C)OC(=O)C[C@@H]1O (stereo partly specified) as the compound, how does the GI50 (BT-549) read?
Answer: < 0.0025 µM (active)

Question: How did the GI50 (BT-549) turn out when CC(Oc1ccc(Cl)cc1Cl)C(=O)NN1C(=O)CC(=O)NC1=S (stereo unspecified) was run?
Answer: > 100 µM (inactive)

Question: Cc1cc(=O)n2nc(SCc3ccccc3)sc2n1 was tested. Which GI50 (BT-549) did it give?
Answer: > 100 µM (inactive)

Question: For NC(Cc1c[nH]c2ccc([N+](=O)[O-])cc12)C(=O)O (stereo unspecified), which GI50 (BT-549) is on record?
Answer: > 100 µM (inactive)

Question: With CC(=O)OC1CCC2(C)C(CCC3C4CC=C(C5(C)OCCO5)C4(C)CCC32)C1 (stereo unspecified) as the compound, how does the GI50 (BT-549) read?
Answer: 20.6 µM (inactive)
